Where two headings read alike, the source gives them in different places.
Tests used:
[1] = test system: Balb/c splenic B cells; assay: B cell activation and proliferation assay (Alamar Blue); format: cell-based, mouse; settings: Mus musculus, B-cell
Procedure: The ability of one or more subject compounds to inhibit B cell activation and proliferation is determined according to standard procedures known in the art. For example, an in vitro cellular proliferation assay is established that measures the metabolic activity of live cells. The assay is performed in a 96 well microtiter plate using Alamar Blue reduction. Balb/c splenic B cells are purified over a Ficoll-Paque™ PLUS gradient followed by magnetic cell separation using a MACS B cell Isolation Kit (Miletenyi). Cells are plated in 90 ul at 50,000 cells/well in B Cell Media (RPMI+10% FBS+Penn/Strep+50 uM bME+5 mM HEPES). A compound disclosed herein is diluted in B Cell Media and added in a 10 ul volume. Plates are incubated for 30 min at 37 C and 5% CO2 (0.2% DMSO final concentration). A 50 ul B cell stimulation cocktail is then added containing either 10 ug/ml LPS or 5 ug/ml F(ab′)2 Donkey anti-mouse IgM plus 2 ng/ml recombinant mouse IL4 in B Cell Media. Plates are incubated for 72 hours at 37° C. and 5% CO2. A volume of 15 uL of Alamar Blue reagent is added to each well and plates are incubated for 5 hours at 37 C and 5% CO2. Alamar Blue fluoresce is read at 560Ex/590Em, and IC50 or EC50 values are calculated using GraphPad Prism 5.

[2] = target: p110δ/p85α (Homo sapiens (Human), UniProt O00329); assay: PI3K δ inhibition assay (TLC lipid kinase or HTRF); format: biochemical
Procedure: (§1) Class I PI3-Ks can be either purchased (p110α/p85α, p110β/p85α, p110δ/p85α from Upstate, and p110γ from Sigma) or expressed as previously described (Knight et al., 2004). IC50 values are measured using either a standard TLC assay for lipid kinase activity (described below) or a high-throughput membrane capture assay. Kinase reactions are performed by preparing a reaction mixture containing kinase, inhibitor (2% DMSO final concentration), buffer (25 mM HEPES, pH 7.4, 10 mM MgCl2), and freshly sonicated phosphatidylinositol (100 μg/ml). Reactions are initiated by the addition of ATP containing 10 μCi of γ-32P-ATP to a final concentration 10 or 100 μM and allowed to proceed for 5 minutes at room temperature. For TLC analysis, reactions are then terminated by the addition of […] 1N HCl followed by 160 μl CHCl3:MeOH (1:1). The biphasic mixture is vortexed, briefly centrifuged, and the organic phase is transferred to a new tube using a gel loading pipette tip precoated with CHCl3. This extract is spotted on TLC plates and developed for 3-4 hours in a 65:35 solution of n-propanol:1M acetic acid. The TLC plates are then dried, exposed to a phosphorimager screen (Storm, Amersham), and quantitated. For each compound, kinase activity is measured at 10-12 inhibitor concentrations representing two-fold dilutions from the highest concentration tested (typically, 200 μM).
(§2) Other commercial kits or systems for assaying PI3-K activities are available. The commercially available kits or systems can be used to screen for inhibitors and/or agonists of PI3-Ks including but not limited to PI 3-Kinase α, β, δ, and γ. Anr exemplary system is PI3-Kinase (human) HTRF™ Assay from Upstate. […] Briefly, the assay is a time resolved FRET assay that indirectly measures PIP3 product formed by the activity of a PI3-K. The kinase reaction is performed in a microtitre plate (e.g., a 384 well microtitre plate). The total reaction volume is approximately 20 ul per well. In the first step, each well receives 2 ul of test compound in 20% dimethylsulphoxide resulting in a 2% DMSO final concentration. Next, approximately 14.5 ul of a kinase/PIP2 mixture (diluted in 1× reaction buffer) is added per well for a final concentration of 0.25-0.3 ug/ml kinase and 10 uM PIP2. The plate is sealed and incubated for 15 minutes at room temperature. To start the reaction, 3.5 ul of ATP (diluted in 1× reaction buffer) is added per well for a final concentration of 10 uM ATP. The plate is sealed and incubated for 1 hour at room temperature. The reaction is stopped by adding 5 ul of Stop Solution per well and then 5 ul of Detection Mix is added per well. The plate is sealed, incubated for 1 hour at room temperature, and then read on an appropriate plate reader. Data is analyzed and IC50s are generated using GraphPad Prism 5.

[3] = target: p110γ (Homo sapiens (Human), UniProt P48736); assay: PI3K γ inhibition assay (TLC lipid kinase or HTRF); format: biochemical
Procedure: as §1, §2

[4] = target: p110α/p85α (Homo sapiens (Human), UniProt P42336); assay: PI3K α inhibition assay (TLC lipid kinase or HTRF); format: biochemical
Procedure: as §1, §2

[5] = target: p110β/p85α (Homo sapiens, UniProt P42338); assay: PI3K β inhibition assay (TLC lipid kinase or HTRF); format: biochemical
Procedure: as §1, §2

Sequence of p110β/p85α (P42338 whole entry, looked up): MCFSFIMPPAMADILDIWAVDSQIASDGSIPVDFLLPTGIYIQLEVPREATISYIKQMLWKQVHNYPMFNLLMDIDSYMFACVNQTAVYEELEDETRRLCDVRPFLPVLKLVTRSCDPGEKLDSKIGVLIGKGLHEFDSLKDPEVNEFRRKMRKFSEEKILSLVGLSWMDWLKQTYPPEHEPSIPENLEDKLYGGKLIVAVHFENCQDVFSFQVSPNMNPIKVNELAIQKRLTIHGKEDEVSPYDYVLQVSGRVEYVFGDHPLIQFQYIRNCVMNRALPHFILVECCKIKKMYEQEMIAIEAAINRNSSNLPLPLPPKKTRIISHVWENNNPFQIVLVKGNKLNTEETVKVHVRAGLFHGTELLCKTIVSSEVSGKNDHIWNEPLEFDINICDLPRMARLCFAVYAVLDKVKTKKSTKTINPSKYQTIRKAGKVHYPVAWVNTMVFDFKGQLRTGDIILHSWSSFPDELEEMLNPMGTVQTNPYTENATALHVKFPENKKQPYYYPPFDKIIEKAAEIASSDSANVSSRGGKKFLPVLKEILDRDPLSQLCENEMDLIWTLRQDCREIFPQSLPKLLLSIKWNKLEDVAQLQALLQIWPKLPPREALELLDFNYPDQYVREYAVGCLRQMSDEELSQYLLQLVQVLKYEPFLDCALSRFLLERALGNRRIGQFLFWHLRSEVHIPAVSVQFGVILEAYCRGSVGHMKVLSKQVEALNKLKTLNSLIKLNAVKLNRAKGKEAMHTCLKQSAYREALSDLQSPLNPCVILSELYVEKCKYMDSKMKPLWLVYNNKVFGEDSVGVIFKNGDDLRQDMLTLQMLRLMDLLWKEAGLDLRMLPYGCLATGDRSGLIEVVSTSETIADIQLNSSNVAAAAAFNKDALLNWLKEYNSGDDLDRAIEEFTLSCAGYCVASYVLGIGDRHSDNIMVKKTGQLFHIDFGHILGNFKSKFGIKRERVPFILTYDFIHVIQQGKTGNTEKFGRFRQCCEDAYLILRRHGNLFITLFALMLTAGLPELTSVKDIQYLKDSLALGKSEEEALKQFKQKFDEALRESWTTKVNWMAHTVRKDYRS
Sequence of p110α/p85α (P42336 whole entry): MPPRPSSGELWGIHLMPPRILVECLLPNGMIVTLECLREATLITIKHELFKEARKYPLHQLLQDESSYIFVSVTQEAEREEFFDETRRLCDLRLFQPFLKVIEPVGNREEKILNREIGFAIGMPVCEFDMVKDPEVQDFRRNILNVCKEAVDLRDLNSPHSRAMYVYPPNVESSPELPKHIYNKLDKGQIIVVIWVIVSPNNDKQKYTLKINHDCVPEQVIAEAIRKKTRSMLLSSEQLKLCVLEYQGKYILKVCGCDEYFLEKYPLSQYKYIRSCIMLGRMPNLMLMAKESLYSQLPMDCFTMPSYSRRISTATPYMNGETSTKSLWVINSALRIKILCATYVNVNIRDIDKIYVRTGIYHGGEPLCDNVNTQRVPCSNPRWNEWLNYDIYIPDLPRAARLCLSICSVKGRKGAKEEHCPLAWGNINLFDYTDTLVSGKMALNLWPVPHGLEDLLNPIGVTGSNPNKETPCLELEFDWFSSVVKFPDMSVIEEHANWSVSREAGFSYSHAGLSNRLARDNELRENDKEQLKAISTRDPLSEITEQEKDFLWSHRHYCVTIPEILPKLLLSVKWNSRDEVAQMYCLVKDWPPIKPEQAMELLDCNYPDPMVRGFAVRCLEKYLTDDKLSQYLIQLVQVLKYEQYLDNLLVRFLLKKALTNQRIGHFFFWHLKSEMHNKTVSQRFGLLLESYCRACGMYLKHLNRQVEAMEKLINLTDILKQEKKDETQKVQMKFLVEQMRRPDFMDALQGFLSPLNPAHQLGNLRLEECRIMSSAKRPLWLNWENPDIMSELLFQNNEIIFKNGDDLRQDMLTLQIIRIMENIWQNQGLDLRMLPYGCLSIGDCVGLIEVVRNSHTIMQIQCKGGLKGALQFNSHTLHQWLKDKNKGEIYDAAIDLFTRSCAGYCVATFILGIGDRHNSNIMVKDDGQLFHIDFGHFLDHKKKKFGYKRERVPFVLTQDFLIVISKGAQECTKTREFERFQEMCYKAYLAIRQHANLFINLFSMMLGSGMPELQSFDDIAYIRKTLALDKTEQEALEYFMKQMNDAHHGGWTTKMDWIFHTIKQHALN
Sequence of p110α/p85α (P27986 whole entry partner): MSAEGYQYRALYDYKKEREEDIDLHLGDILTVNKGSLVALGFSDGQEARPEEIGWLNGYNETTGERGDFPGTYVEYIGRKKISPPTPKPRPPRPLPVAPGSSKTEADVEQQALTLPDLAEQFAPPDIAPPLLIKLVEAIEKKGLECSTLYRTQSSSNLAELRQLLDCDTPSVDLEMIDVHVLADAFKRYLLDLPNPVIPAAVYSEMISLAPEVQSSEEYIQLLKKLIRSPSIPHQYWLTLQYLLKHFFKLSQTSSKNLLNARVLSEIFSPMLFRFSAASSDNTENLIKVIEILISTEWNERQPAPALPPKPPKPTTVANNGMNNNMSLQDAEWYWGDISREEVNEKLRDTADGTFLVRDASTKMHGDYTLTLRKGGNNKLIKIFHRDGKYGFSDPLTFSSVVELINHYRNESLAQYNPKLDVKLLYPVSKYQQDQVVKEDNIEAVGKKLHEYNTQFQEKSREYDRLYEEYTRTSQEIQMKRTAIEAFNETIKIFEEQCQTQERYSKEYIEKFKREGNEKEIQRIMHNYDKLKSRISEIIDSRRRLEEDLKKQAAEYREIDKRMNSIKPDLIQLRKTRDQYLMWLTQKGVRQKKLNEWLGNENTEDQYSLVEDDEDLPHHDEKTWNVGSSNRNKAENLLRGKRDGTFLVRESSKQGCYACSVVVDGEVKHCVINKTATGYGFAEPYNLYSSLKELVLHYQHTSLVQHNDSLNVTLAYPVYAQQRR
Sequence of p110γ (P48736 whole entry): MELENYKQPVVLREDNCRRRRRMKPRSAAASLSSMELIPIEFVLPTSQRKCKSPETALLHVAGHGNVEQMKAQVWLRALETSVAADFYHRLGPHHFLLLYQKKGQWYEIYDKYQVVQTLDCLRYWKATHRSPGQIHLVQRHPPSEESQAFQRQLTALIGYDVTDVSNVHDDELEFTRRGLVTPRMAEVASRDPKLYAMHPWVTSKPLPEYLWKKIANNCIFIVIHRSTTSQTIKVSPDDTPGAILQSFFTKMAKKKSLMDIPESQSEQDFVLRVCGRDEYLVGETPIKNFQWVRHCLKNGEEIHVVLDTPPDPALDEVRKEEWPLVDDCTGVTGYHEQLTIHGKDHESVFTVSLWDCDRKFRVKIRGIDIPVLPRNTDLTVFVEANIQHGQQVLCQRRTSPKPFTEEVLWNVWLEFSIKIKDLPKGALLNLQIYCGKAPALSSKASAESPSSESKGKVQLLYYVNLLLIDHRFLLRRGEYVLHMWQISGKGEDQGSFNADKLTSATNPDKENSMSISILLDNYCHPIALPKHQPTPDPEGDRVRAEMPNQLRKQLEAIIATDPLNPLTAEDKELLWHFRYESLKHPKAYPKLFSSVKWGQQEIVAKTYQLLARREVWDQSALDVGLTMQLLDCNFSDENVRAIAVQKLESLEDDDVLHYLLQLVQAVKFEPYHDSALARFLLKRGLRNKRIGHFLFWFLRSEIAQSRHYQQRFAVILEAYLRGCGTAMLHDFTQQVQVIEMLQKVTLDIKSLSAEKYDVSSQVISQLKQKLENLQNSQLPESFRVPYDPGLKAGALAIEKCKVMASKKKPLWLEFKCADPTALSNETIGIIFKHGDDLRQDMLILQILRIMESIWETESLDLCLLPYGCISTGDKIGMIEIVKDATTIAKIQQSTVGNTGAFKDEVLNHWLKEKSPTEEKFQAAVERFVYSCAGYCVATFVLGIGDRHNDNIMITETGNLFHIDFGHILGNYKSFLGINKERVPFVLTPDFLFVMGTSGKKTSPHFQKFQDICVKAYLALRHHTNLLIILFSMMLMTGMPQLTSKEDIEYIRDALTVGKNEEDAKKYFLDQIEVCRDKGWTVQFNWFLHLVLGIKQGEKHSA
Sequence of p110δ/p85α (O00329 whole entry): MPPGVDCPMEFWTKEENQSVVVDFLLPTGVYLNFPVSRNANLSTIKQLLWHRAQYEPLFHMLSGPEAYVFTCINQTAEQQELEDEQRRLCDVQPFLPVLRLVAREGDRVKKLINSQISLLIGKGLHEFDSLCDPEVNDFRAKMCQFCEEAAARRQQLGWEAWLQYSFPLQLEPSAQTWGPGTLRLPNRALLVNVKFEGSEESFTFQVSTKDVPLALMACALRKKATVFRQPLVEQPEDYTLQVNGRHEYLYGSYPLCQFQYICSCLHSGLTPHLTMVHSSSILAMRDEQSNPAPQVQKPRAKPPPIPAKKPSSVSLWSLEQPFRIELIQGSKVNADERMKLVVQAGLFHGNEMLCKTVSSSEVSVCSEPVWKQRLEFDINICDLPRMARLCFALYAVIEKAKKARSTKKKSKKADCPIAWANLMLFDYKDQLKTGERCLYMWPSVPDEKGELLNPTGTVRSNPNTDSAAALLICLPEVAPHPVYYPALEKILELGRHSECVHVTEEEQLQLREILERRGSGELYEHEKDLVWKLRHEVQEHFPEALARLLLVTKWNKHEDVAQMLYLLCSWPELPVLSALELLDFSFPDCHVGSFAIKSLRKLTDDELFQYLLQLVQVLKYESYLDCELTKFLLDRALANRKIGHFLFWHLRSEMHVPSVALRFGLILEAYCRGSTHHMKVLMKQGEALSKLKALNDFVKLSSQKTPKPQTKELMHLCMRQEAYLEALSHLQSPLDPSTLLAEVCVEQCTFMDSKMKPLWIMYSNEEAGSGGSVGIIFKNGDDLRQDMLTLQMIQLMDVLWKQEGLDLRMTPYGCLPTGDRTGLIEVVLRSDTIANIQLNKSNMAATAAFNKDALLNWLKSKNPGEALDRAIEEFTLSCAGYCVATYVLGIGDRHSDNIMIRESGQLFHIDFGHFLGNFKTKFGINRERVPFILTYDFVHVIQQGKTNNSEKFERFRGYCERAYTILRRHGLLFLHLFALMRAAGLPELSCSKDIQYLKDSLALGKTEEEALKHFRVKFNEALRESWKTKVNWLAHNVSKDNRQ
Sequence of p110δ/p85α (P27986 whole entry partner): as the sequence (P27986 whole entry partner) above

IC50 [2] [µM] | IC50 [3] [µM] | IC50 [4] [µM] | IC50 ([5]; read-out: PI3K β IC50) [µM] | Compound | EC50 [1] [µM] | IC50 ([5]; PI3K β IC50) [µM]
0.1 to 1 | > 1 | – | – | CC(C)Nc1nc2ccccc2cc1Cn1nc(-c2cc(O)cc(F)c2)c2c(N)ncnc21 [Compound 25] | > 1 | –
< 0.1 | > 1 | – | – | CC(c1cc2ccccc2nc1N1CCCC1)n1nc(C#C[C@@H](C)O)c2c(N)ncnc21 (some centres unmarked) [Compound 31] | 0.1 to 1 | –
< 0.1 | < 0.1 | – | – | CC(c1cc2ccccc2nc1N1CCCC1)n1nc(-c2cc(O)cc(F)c2)c2c(N)ncnc21 (centres unmarked) [Compound 30] | < 0.1 | –
< 0.1 | – | – | – | Cc1cccc2cc(Cn3nc(-c4cc(O)cc(F)c4)c4c(N)ncnc43)c(N3CCN(C)CC3)nc12 [Compound 12] | < 0.1 | –
< 0.1 | 0.1 to 1 | – | – | Nc1ncnc2c1c(-c1cc(O)cc(F)c1)nn2Cc1cc2ccccc2nc1N1CCN(CCO)CC1 [Compound 34] | < 0.1 | –
< 0.1 | – | – | – | Nc1ncnc2c1c(-c1cc(O)cc(F)c1)nn2Cc1cc2ccccc2nc1NC1CCC1 [Compound 42] | < 0.1 | –
< 0.1 | – | – | – | Cc1cccc2cc(Cn3nc(I)c4c(N)ncnc43)c(N3CCN(C)CC3)nc12 [Compound 11] | < 0.1 | –
< 0.1 | – | – | – | CC(C)c1ccccc1-c1nc2ccccc2cc1Cn1nc(C#C[C@@H](C)O)c2c(N)ncnc21 [Compound 16] | 0.1 to 1 | –
< 0.1 | – | – | – | Nc1ncnc2c1c(-c1cc(O)cc(F)c1)nn2Cc1cc2ccccc2nc1N1CCCCC1 [Compound 20] | < 0.1 | –
> 1 | > 1 | > 1 | > 1 | Nc1ncnc2c1c(/C=C1/CCNC1=O)nn2Cc1cc2ccccc2nc1-c1ccccc1F [Compound 193] | – | –
< 0.1 | – | – | – | Nc1ncnc2c1c(-c1cc(O)cc(F)c1)nn2Cc1cc2ccccc2nc1-c1ccccc1F [Compound 19] | < 0.1 | –
< 0.1 | 0.1 to 1 | – | – | Nc1ncnc2c1c(-c1cc(O)cc(F)c1)nn2Cc1cc2ccccc2nc1-c1ccccc1C(F)(F)F [Compound 45] | < 0.1 | –
0.1 to 1 | 0.1 to 1 | > 1 | > 1 | Nc1ncnc2c1c(-c1cccc(O)c1)nn2Cc1cc2ccccc2nc1-c1ccccc1F [Compound 91] | – | –
0.1 to 1 | > 1 | > 1 | > 1 | CC(c1cc2ccccc2nc1N1CCN(C)CC1)n1cnc2c(N)ncnc21 (centres unmarked) [Compound 89] | – | –
< 0.1 | 0.1 to 1 | > 1 | > 1 | Cn1c(=O)c(Cn2nc(-c3cc(O)cc(F)c3)c3c(N)ncnc32)cc2ccccc21 [Compound 112] | – | –
< 0.1 | < 0.1 | > 1 | > 1 | CCc1nc2ccccc2cc1Cn1nc(-c2ccc3nc(NC(C)=O)sc3c2)c2c(N)ncnc21 [Compound 98] | – | –
0.1 to 1 | > 1 | > 1 | > 1 | Cc1ccccc1-c1nc2ccccc2nc1Cn1nc(-c2cccc(O)c2)c2c(N)ncnc21 [Compound 108] | – | –
> 1 | > 1 | > 1 | > 1 | CNc1ncnc2c1c(-c1cc(O)cc(F)c1)nn2Cc1cc2ccccc2nc1N(C)CCN1CCOCC1 [Compound 76] | – | –

IC50 [2] [µM] | IC50 [3] [µM] | IC50 [4] [µM] | IC50 ([5]; read-out: PI3K β IC50) [µM] | Compound | EC50 [1] [µM] | IC50 ([5]; PI3K β IC50) [µM]
< 0.1 | 0.1 to 1 | > 1 | > 1 | CCn1c(=O)c(Cn2nc(-c3ccc4nc(NC(C)=O)sc4c3)c3c(N)ncnc32)nc2ccccc21 [Compound 118] | – | –
< 0.1 | 0.1 to 1 | > 1 | > 1 | CC(=O)Nc1nc2ccc(-c3nn(Cc4cc5ccccc5nc4-n4ccnc4C)c4ncnc(N)c34)cc2s1 [Compound 170] | – | –
< 0.1 | – | – | – | COc1ccccc1-c1nc2ccccc2cc1Cn1nc(-c2cc(O)cc(F)c2)c2c(N)ncnc21 [Compound 15] | < 0.1 | –
< 0.1 | – | – | – | Nc1ncnc2c1c(-c1cnc3[nH]ccc3c1)nn2Cc1cc2ccccc2nc1N1CCCC1 [Compound 23] | < 0.1 | –
< 0.1 | 0.1 to 1 | > 1 | > 1 | CC(Nc1ncnc2[nH]cnc12)c1cc2ccccc2nc1-c1ccccc1 (centres unmarked) [Compound 93] | – | –
0.1 to 1 | > 1 | > 1 | > 1 | CC(Nc1ncnc2[nH]cnc12)c1cc2ccccc2nc1N1CCCC1 (centres unmarked) [Compound 88] | – | –
< 0.1 | < 0.1 | 0.1 to 1 | 0.1 to 1 | CCc1nc2ccccc2cc1Cn1nc(-c2ccc3nc(N)sc3c2)c2c(N)ncnc21 [Compound 99] | – | –
< 0.1 | < 0.1 | 0.1 to 1 | 0.1 to 1 | Cc1cccc2cc(Cn3nc(-c4cc(O)cc(F)c4)c4c(N)ncnc43)c(N3CCOCC3)nc12 [Compound 65] | – | –
0.1 to 1 | > 1 | > 1 | > 1 | Nc1ncnc2c1c(-c1cccc(O)c1)nn2Cc1cc2ccccc2[nH]c1=O [Compound 109] | – | –
< 0.1 | > 1 | > 1 | > 1 | CCn1c(=O)c(Cn2nc(-c3cc(O)cc(F)c3)c3c(N)ncnc32)cc2ccccc21 [Compound 113] | – | –
0.1 to 1 | > 1 | > 1 | > 1 | CCn1c(=O)c(Cn2nc(-c3cccc(O)c3)c3c(N)ncnc32)cc2ccccc21 [Compound 115] | – | –
< 0.1 | 0.1 to 1 | > 1 | 0.1 to 1 | CCc1nc2ccccc2cc1Cn1nc(-c2cc(O)cc(F)c2)c2c(N)ncnc21 [Compound 97] | – | –
< 0.1 | < 0.1 | 0.1 to 1 | > 1 | CCn1c(=O)c(Cn2nc(-c3ccc4nc(N)sc4c3)c3c(N)ncnc32)nc2ccccc21 [Compound 119] | – | –
0.1 to 1 | > 1 | > 1 | > 1 | CCn1c(=O)c(Cn2nc(-c3cccc(O)c3)c3c(N)ncnc32)nc2ccccc21 [Compound 116] | – | –
< 0.1 | > 1 | > 1 | > 1 | CCn1c(=O)c(Cn2nc(-c3cc(O)cc(F)c3)c3c(N)ncnc32)nc2ccccc21 [Compound 117] | – | –
> 1 | > 1 | > 1 | > 1 | CN1CCN(c2nc3ccccc3cc2CNc2ncnc3[nH]cnc23)CC1 [Compound 87] | – | –
> 1 | > 1 | > 1 | > 1 | C=Cc1nn(Cc2cc3ccccc3nc2-c2ccccc2F)c2ncnc(N)c12 [Compound 190] | – | –
< 0.1 | – | – | – | Cc1cccc2cc(Cn3nc(-c4cccc(O)c4)c4c(N)ncnc43)c(N3CCN(C)CC3)nc12 [Compound 13] | < 0.1 | –

Compound | IC50 [2] [µM] | IC50 [3] [µM] | IC50 [4] [µM] | IC50 ([5]; read-out: PI3K β IC50) [µM] | EC50 [1] [µM] | IC50 ([5]; PI3K β IC50) [µM]
CN1CCN(c2nc3ccccc3cc2Cn2cnc3c(N)ncnc32)CC1 [Compound 67] | > 1 | > 1 | > 1 | – | – | > 1

Source: patent US9790228B2, “Heterocyclic kinase inhibitors” (Intellikine LLC, priority 2008, dated 2017)
